Reference: paper PMC10973027 (Molecular Imaging and Biology, 2023)
Several values for one entry are separate records, joined by “and”; a condition that tells them apart may be missing. Identical values can stand only once.

Tests used:
[1] = Radio-HPLC metabolite analysis of mouse brain homogenate and plasma after IV radiotracer; format: in vivo, male C57 black 6 mice; details: for % Parent Plasma / % Parent Brain: individual mice; for % Parent Brain: brain homogenate; for share of total brain activity corresponding to the parent / share of total plasma activity corresponding to the parent: approximate
Procedure: In this preclinical study, two radiolabeling positions were investigated, [^11C-N-CH3]UCB2713 and [^11C]carbonyl UCB2713 ([^11C-CO]UCB2713). The radiolabeling of [^11C-N-CH3]UCB2713 was performed by N-methylation of the corresponding desmethyl precursor with [^11C]methyl iodide and radiolabeling of [^11C-CO]UCB2713 was performed by [^11C]aminocarbonylation of the iodo precursor and the amino precursor with [^11C]carbon monoxide in the presence of Pd(π-cinnamyl) chloride dimer and Xantphos (4,5-bis(diphenylphosphino)-9,9-dimethylxanthene) (Fig. 1b). For additional information on the precursor molecules and radiolabeling methods, see the electronic supplement. A high-performance liquid chromatography (HPLC) metabolite analysis method was developed to quantify the ratio of [^11C-N-CH3]UCB2713 and other unidentified metabolites in plasma and brain homogenate samples. Relative quantification was used to provide the ratio of parent to metabolite in these samples.
Preclinical experiments were conducted on male C57 black 6 mice (N = 10). In vivo experiments were performed on 3 mice and included a PET scan of the brain; ex vivo experiments were performed on all 10 mice and included samples of brain homogenate.
[11C]UCB2713 in vivo/ex vivo Evaluation
Administration of Radioligand and Collecting Samples
Each mouse received an intravenous (IV) bolus injection of [11C]UCB2713 via the jugular vein. The mean (standard deviation [SD]) mass of each radiotracer dose was 1.54 (± 1.03) µg; with a radioactive dose of 17.26 (± 10.88) MBq. At pre-defined time points (40, 60, and 90 min) post-administration of [11C]UCB2713, each mouse was euthanized by exsanguination, followed by cervical dislocation, with blood samples collected in heparin tubes and the brain dissected.
Brain Sample Processing and Preparation of Sample for Analysis
A sample of brain homogenate (1:1, brain:water) was assessed for radioactivity using a γ-counter. Brain homogenate was extracted with a ratio of 1:2 (homogenate:acetonitrile); a ratio of 1:1 was used for the first two animals. The mixture was vortexed for 3 min followed by centrifugation (12000 x g) for 5 min at room temperature. The extraction efficiency was […]
Brain extraction efficiency = counts per minute (CPM) in supernatant (brain extract)/CPM in brain homogenate extracted
To identify the parent-retention time based on the ultraviolet (UV) chromatogram, 20 µL of a solution containing UCB2713 was added to the supernatant (350 µL), followed by 350 µL of 50 mM ammonium formate (adjusted to pH 8), then 0.5 mL of the resulting solution was injected onto the high-performance liquid chromatography (HPLC) column.
Two aliquots of this solution were counted to determine the HPLC recovery as follows:
Recovery efficiency % = = i=1 ∙100 […]
Where “CPM(aliq.)” is the radioactivity measured for the HPLC brain homogenate samples aliquot, “Valiq.” Is the volume of each aliquot , “CPM fi” is the count per minute for fraction “i” and ∑ 30 is the sum of 30 fractions.
Mouse blood samples were centrifuged at 7500 x g for 3 min at 4 °C and plasma was extracted with a ratio of 1:1 (plasma:acetonitrile). The plasma extraction efficiency was […]
Plasma extraction efficiency = CPM in supernatant (plasma extract)/CPM in plasma […]
Samples were prepared as described above for the brain, and two aliquots of solution were counted to determine the HPLC column recovery.
HPLC Procedure and Data Analysis
The HPLC system used a pump, degasser, UV-Vis/Diode Array Detector, and fraction collector. HPLC conditions used were 55% acetonitrile and 45% 100 mM ammonium formate (Method 1), or 48% acetonitrile and 52% 100 mM ammonium formate (adjusted to pH 8; Method 2) as the mobile phase at 5 mL/min and an Agilent XDB-C18 semi-preparative […]
(§1) column (5 micron, 250 x 9.4 mm; Method 2); 30 sample fractions (Method 1) and 36 sample fractions (Method 2) were collected over either a 10- or 12-min run.
A radio-chromatogram was reconstructed from the HPLC fractions collected and the […]

[2] = PET-CT imaging of the mouse brain (time-activity curve, SUV); format: in vivo, male C57 black 6 mice; details: at 60 min
Procedure: Preclinical experiments were conducted on male C57 black 6 mice (N = 10). In vivo experiments were performed on 3 mice and included a PET scan of the brain; ex vivo experiments were performed on all 10 mice and included samples of brain homogenate. […]
as §1
A radio-chromatogram was reconstructed from the HPLC fractions collected and the percent of unchanged [11C]UCB2713 was calculated:
[11C]UCB2713 parent fraction = i=n i
Where “cCPM fi” is the radioactivity measured for the HPLC fraction, corrected for the background radioactivity. “n” is first and “m” the last HPLC fraction containing the parent compound (1 ≤ n, m ≤ 30 or 36 [where 30 or 36 are the total number of fractions collected]).
PET-Computed Tomography (CT) Scanning and Image Reconstruction
Three mice were euthanized at the 90 min time point following radioligand injection. Prior to euthanization, these mice were scanned by PET-CT. A dynamic PET scan (Siemens Inveon DPET with docked multi-modality CT scanner) was acquired for each anesthetized mouse following IV administration of [11C]UCB2713. PET images were acquired in list mode and reconstructed with increasing time frames over the duration of the scan to characterize radiotracer kinetics. […]

[3] = mouse, 40 min post-administration

Compound | % Parent Plasma ([1]; 40 min post IV administration) | % Parent Plasma ([1]; 60 min post IV administration) | % Parent Plasma ([1]; 90 min post IV administration) | % Parent Brain ([1]; 40 min post IV administration) | % Parent Brain ([1]; 60 min post IV administration) | % Parent Brain ([1]; 90 min post IV administration) | Kp at 40 min ([1]; male, C57 black 6, mouse, brain/plasma, intravenous, 1.54 µg, mouse, 40 min, read-out: ratio (SD) of parent in the brain versus parent in plasma) | Kp at 60 min ([1]; male, C57 black 6, mouse, brain/plasma, intravenous, 1.54 µg, mouse, 60 min, read-out: ratio (SD) of parent in the brain versus parent in plasma) | Kp at 90 min ([1]; male, C57 black 6, mouse, brain/plasma, intravenous, 1.54 µg, mouse, 90 min, read-out: ratio (SD) of parent in the brain versus parent in plasma) | share of total brain activity corresponding to the parent [1, 3] | share of total plasma activity corresponding to the parent [1, 3] | share of total brain activity corresponding to the parent ([1]; mouse, 90 min) | share of total plasma activity corresponding to the parent ([1]; mouse, 90 min) [%] | polar metabolites in mouse brain ([1]; radio-HPLC column eluent front ~1.5-2 min) | standard uptake volume (SUV), whole brain [2] | amount of desmethyl metabolite observed in mouse brain ([1]; radio-HPLC of brain homogenate after [11C-CO]UCB2713)
CCCC[C@@H](Cc1c[nH]c2ccccc12)NC(=O)c1cnc(N2CCN([11CH3])CC2)s1 [[^11C-N-CH3]UCB2713] | 34.3% and 27.0% and 29.3% and 30.8% | 30.6% and 19.5% and 24.6% | 9.7% and 26.0% and 17.7% | 62.0% and 61.1% and 56.0% and 58.2% | 52.6% and 40.9% and 50.3% | 34.7% and 29.7% and 22.1% | 0.77 ± 0.11 | 0.73 ± 0.06 | 0.79 ± 0.69 | approximately 60% | approximately 30% | approximately 30% | ~20 | significant contribution of brain activity from polar metabolites | ~ 0.2 | –
CCCC[C@@H](Cc1c[nH]c2ccccc12)N[11C](=O)c1cnc(N2CCNCC2)s1 [desmethyl-[^11C-CO]UCB2713] | – | – | – | – | – | – | – | – | – | – | – | – | – | – | – | ~ 2%
